Source: patent US20190367516A1 (Bayer Pharma Aktiengesellschaft, priority 2015, published 2019)
pEC50: −log10 of the molar value. Where two headings read alike, the source gives them in different places.

Biological target: T1, human M2 receptor (Homo sapiens, UniProt P08172)
T1 sequence (P08172 1-466): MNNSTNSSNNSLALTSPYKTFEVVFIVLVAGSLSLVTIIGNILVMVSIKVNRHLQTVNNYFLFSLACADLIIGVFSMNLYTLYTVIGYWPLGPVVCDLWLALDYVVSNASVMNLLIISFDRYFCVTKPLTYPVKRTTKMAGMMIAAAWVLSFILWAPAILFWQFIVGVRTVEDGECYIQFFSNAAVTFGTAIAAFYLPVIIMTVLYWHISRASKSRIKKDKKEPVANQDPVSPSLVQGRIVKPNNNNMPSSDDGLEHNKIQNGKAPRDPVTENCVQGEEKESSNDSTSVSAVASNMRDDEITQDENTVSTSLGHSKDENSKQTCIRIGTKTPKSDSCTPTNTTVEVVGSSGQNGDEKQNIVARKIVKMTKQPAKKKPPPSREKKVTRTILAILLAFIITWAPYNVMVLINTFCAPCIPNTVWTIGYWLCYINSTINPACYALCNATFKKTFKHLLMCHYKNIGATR

[1] = Receptor activity EC50, M2-GIRK1/4 activation test, acetylcholine at EC20, allosteric potency, in some cases mean values from two or more determinations
[2] = Receptor activity EC50, allosteric potency at EC20 acetylcholine, M2-GIRK1/4 reporter cells, in some cases mean of two or more determinations
[3] = read-out: Efficiency, boosting of the acetylcholine effect at EC20 acetylcholine concentration, M2-GIRK1/4 reporter cells

Compound	pEC50 [1]	pEC50 [2]	Emax [3] [%]	Emax (read-out: Efficiency) [%]
CC(C)(NC(=O)c1cn(-c2c(F)cc(F)cc2F)c2nc(N3C[C@@H](O)[C@H](O)C3)ccc2c1=O)C1CC1 [Example 379, N-(2-Cyclopropylpropan-2-yl)-7-[(3R,4R)-3,4-dihydroxypyrrolidin-1-yl]-4-oxo-1-(2,4,6-trifluorophenyl)-1,4-dihydro-1,8-naphthyridine-3-carboxamide]	7.46			
CCCC(NC(=O)c1cn(-c2ccc(F)cc2F)c2nc(N(C)CCF)ccc2c1=O)C(F)(F)F (centres unmarked) [Example 106, 1-(2,4-Difluorophenyl)-7-[(2-fluoroethyl)(methyl)amino]-4-oxo-N-[1,1,1-trifluoropentan-2-yl]-1,4-dihydro-1,8-naphthyridine-3-carboxamide]	7.49			
CC[C@@H](NC(=O)c1cn(-c2ccccc2C(F)(F)F)c2nc(N3C[C@@H](O)CC3=O)ccc2c1=O)C(F)(F)F (single isomer, unassigned) [Example 269]	6.68			
CC(C)(CC(F)(F)F)NC(=O)c1cn(-c2c(F)cc(F)cc2F)c2nc(N3CC(O)C4(CC4)C3)ccc2c1=O (racemic) [Example 569, 7-[7-Hydroxy-5-azaspiro[2.4]hept-5-yl]-4-oxo-N-(4,4,4-trifluoro-2-methylbutan-2-yl)-1-(2,4,6-trifluorophenyl)-1,4-dihydro-1,8-naphthyridine-3-carboxamide]		7.31	100	
CC(C)Nc1ccc2c(=O)c(C(=O)NC34CCC(CC3)CC4)cn(-c3ccc(F)cc3F)c2n1 [compound 159]	6.93			
O=C(NC(c1ccccc1Cl)C(F)(F)F)c1cn(-c2ccc(F)cc2F)c2nc(N3CC[C@@H](O)C3=O)ccc2c1=O (stereo partly drawn) [Example 299, N-[1-(2-Chlorophenyl)-2,2,2-trifluoroethyl]-1-(2,4-difluorophenyl)-7-[(3R)-3-hydroxy-2-oxopyrrolidin-1-yl]-4-oxo-1,4-dihydro-1,8-naphthyridine-3-carboxamide]	7.25			
CC(NC(=O)c1cn(-c2c(F)cc(F)cc2F)c2nc(N3C[C@@H](O)CC3=O)ccc2c1=O)C1CCC1 (mixture of isomers) [Example 471, N-[1-Cyclobutylethyl]-7-[(4S)-4-hydroxy-2-oxopyrrolidin-1-yl]-4-oxo-1-(2,4,6-trifluorophenyl)-1,4-dihydro-1,8-naphthyridine-3-carboxamide]		8.00	89	
O=C(NC(c1c(F)cccc1F)C(F)(F)F)c1cn(-c2ccc(F)cc2F)c2nc(N3CCC(O)CC3=O)ccc2c1=O (racemic) [Example 252, rac-1-(2,4-Difluorophenyl)-N-[1-(2,6-difluorophenyl)-2,2,2-trifluoroethyl]-7-[4-hydroxy-2-oxopiperidin-1-yl]-4-oxo-1,4-dihydro-1,8-naphthyridine-3-carboxamide]	6.96			
CC(C)(CC(F)(F)F)NC(=O)c1cn(-c2c(F)cc(F)cc2F)c2nc(N3CCN(CCO)C3=O)ccc2c1=O [Example 375, 7-[3-(2-Hydroxyethyl)-2-oxoimidazolidin-1-yl]-4-oxo-N-(4,4,4-trifluoro-2-methylbutan-2-yl)-1-(2,4,6-trifluorophenyl)-1,4-dihydro-1,8-naphthyridine-3-carboxamide]	7.40			
O=C(NC12CC3CC(CC(C3)C1)C2)c1cn(-c2ccc(F)cc2F)c2nc(NCC(F)F)ccc2c1=O [Example 120, 7-[(2,2-Difluoroethyl)amino]-1-(2,4-difluorophenyl)-4-oxo-N-(tricyclo[3.3.1.1^3,7]dec-1-yl)-1,4-dihydro-1,8-naphthyridine-3-carboxamide]	7.21			
O=C(NC(c1c(F)cccc1F)C(F)(F)F)c1cn(-c2ccc(F)cc2F)c2nc(N3CCCC(O)C3=O)ccc2c1=O (single isomer, unassigned) [Example 248, 1-(2,4-Difluorophenyl)-N-[1-(2,6-difluorophenyl)-2,2,2-trifluoroethyl]-7-[3-hydroxy-2-oxopiperidin-1-yl]-4-oxo-1,4-dihydro-1,8-naphthyridine-3-carboxamide]	6.48			
COC1(C)CN(c2ccc3c(=O)c(C(=O)N[C@@H](C(C)(C)C)C(F)(F)F)cn(-c4c(F)cc(F)cc4F)c3n2)C1 [Example 598, 7-(3-Methoxy-3-methylazetidin-1-yl)-4-oxo-N-[(2S)-1,1,1-trifluoro-3,3-dimethylbutan-2-yl]-1-(2,4,6-trifluorophenyl)-1,4-dihydro-1,8-naphthyridine-3-carboxamide]		7.68	100	
O=C(NC1(CC(F)(F)F)CC1)c1cn(-c2c(F)cc(F)cc2F)c2nc(N3C[C@@H](O)CC3=O)ccc2c1=O [Example 632, 7-[(4S)-4-Hydroxy-2-oxopyrrolidin-1-yl]-4-oxo-N-[1-(2,2,2-trifluoroethyl)cyclopropyl]-1-(2,4,6-trifluorophenyl)-1,4-dihydro-1,8-naphthyridine-3-carboxamide]		7.31	100	
CC(C)C[C@H](NC(=O)c1cn(-c2c(F)cc(F)cc2F)c2nc(N3C[C@@H](O)CC3=O)ccc2c1=O)C(F)(F)F [Example 525, 7-[(4S)-4-Hydroxy-2-oxopyrrolidin-1-yl]-oxo-N-[(2S)-1,1,1-trifluoro-4-methylpentan-2-yl]-1-(2,4,6-trifluorophenyl)-1,4-dihydro-1,8-naphthyridine-3-carboxamide]		8.30	100	
CC(NC(=O)c1cn(-c2c(F)cc(F)cc2F)c2nc(N3C[C@@H](C)NC3=O)ccc2c1=O)C(F)(F)C(F)(F)F (mixture of isomers) [Example 458, 7-[(4R)-4-Methyl-2-oxoimidazolidin-1-yl]-4-oxo-N-[3,3,4,4,4-pentafluorobutan-2-yl]-1-(2,4,6-trifluorophenyl)-1,4-dihydro-1,8-naphthyridine-3-carboxamide]		8.52	100	
CCC(NC(=O)c1cn(-c2ccc(F)cc2F)c2nc(NCC(F)F)ccc2c1=O)C(F)(F)F (racemic) [Example 122, rac-7-[(2,2-Difluoroethyl)amino]-1-(2,4-difluorophenyl)-4-oxo-N-[1,1,1-trifluorobutan-2-yl]-1,4-dihydro-1,8-naphthyridine-3-carboxamide]	7.03			
O=C(NC12CC3CC(CC(C3)C1)C2)c1cn(-c2ccc(F)cc2F)c2nc(NCCO)ccc2c1=O [Example 79, 1-(2,4-Difluorophenyl)-7-[(2-hydroxyethyl)amino]-4-oxo-N-(tricyclo[3.3.1.1^3,7]dec-1-yl)-1,4-dihydro-1,8-naphthyridine-3-carboxamide]	6.84			
CC1CN(c2ccc3c(=O)c(C(=O)N[C@@H](C4CC4)C(F)(F)F)cn(-c4c(F)cc(F)cc4F)c3n2)C(=O)O1 (mixture of isomers) [Example 436, N-[(1 S)-1-Cyclopropyl-2,2,2-trifluoroethyl]-7-[5-methyl-2-oxo-1,3-oxazolidin-3-yl]-4-oxo-1-(2,4,6-trifluorophenyl)-1,4-dihydro-1,8-naphthyridine-3-carboxamide]		7.09	94	
CC[C@@H](NC(=O)c1cn(-c2c(Cl)cccc2Cl)c2nc(N3C[C@@H](O)CC3=O)ccc2c1=O)C(F)(F)F [Example 645, 1-(2,6-Dichlorophenyl)-7-[(4S)-4-hydroxy-2-oxopyrrolidin-1-yl]-4-oxo-N-[(2R)-1,1,1-trifluorobutan-2-yl]-1,4-dihydro-1,8-naphthyridine-3-carboxamide]		7.13		83
CN(C)c1ccc2c(=O)c(C(=O)NC34CC5CC(C3)C(F)(F)C(C5)C4)cn(-c3ccc(F)cc3Cl)c2n1 [Example 40, 1-(2-Chloro-4-fluorophenyl)-N-(4,4-difluorotricyclo[3.3.1.1^3,7]dec-1-yl)-7-(dimethylamino)-4-oxo-1,4-dihydro-1,8-naphthyridine-3-carboxamide]	6.97			
O=C(NC(c1ccccc1Cl)C(F)(F)F)c1cn(-c2c(F)cc(F)cc2F)c2nc(N3CCNC3=O)ccc2c1=O (single isomer, unassigned) [Example 564, N-[1-(2-Chlorophenyl)-2,2,2-trifluoroethyl]-4-oxo-7-(2-oxoimidazolidin-1-yl)-1-(2,4,6-trifluorophenyl)-1,4-dihydro-1,8-naphthyridine-3-carboxamide]		7.38	89	
O=C(N[C@@H](C1CC1)C(F)(F)F)c1cn(-c2c(F)cc(F)cc2F)c2nc(N3CCC(O)C(O)C3)ccc2c1=O (mixture of isomers) [Example 615, N-[(1 S)-1-Cyclopropyl-2,2,2-trifluoroethyl]-7-[trans-3,4-dihydroxypiperidin-1-yl]-4-oxo-1-(2,4,6-trifluorophenyl)-1,4-dihydro-1,8-naphthyridine-3-carboxamide]		7.28	99.3	
CC[C@@H](NC(=O)c1cn(-c2c(F)cc(F)cc2F)c2nc(N3CCC(C)(O)C3)ccc2c1=O)C(F)(F)F (stereo partly drawn) [Example 324, 7-[3-Hydroxy-3-methylpyrrolidin-1-yl]-4-oxo-N-[(2R)-1,1,1-trifluorobutan-2-yl]-1-(2,4,6-trifluorophenyl)-1,4-dihydro-1,8-naphthyridine-3-carboxamide]	7.47			
O=C(N[C@@H](C1CC1)C(F)(F)F)c1cn(-c2c(F)cc(F)cc2F)c2nc(N3C[C@@H](C(=O)O)OC3=O)ccc2c1=O [Example 667, (5S)-3-[6-{[(1S)-1-Cyclopropyl-2,2,2-trifluoroethyl]carbamoyl}-5-oxo-8-(2,4,6-trifluorophenyl)-5,8-dihydro-1,8-naphthyridin-2-yl]-2-oxo-1,3-oxazolidine-5-carboxylic acid]		5.41	100	
